Here are results for four compounds from publication PMC10903983, “Inducing mitochondriopathy-like damages by transformable nucleopeptide nanoparticles for targeted therapy of bladder cancer” (National Science Review, 2024).

Non-standard residues stand in square brackets, D forms with d. Residues, ends and D or L forms follow the SMILES beside them. *: point of attachment. Coumarin3carbonyl(7-OH) = O=C(c1cc2ccc(O)cc2oc1=O)*; Acetyl(thymin-1-yl) = Cc1cn(CC(=O)*)c(=O)[nH]c1=O; PEG8 = NCCOCCOCCOCCOCCOCCOCCOCCOCCC(=O)O

The subject of one data set is T24 cells. Nature of the data set: CCK-8 cytotoxicity assay, T24 cells. Type of data set: cell-based, human. To be noted: 48 h; for IC50: human.
In another data set the test system is EJ cells. In kind it is cell-based. To be noted: human, 48 h.
The subject of a further data set is RT-112 cells. Type of data set: cell-based. To be noted: human, 48 h.
Data set [1] relates to T24 xenograft mice. Nature of the data set: In vivo / ex vivo dose-dependent fluorescence imaging in T24 xenograft mice. The conditions noted are these: i.v., 500 μM or 250 μM in 200 μL PBS, 1-96 hours, N = 3.
The subject of data set [2] is T24 xenograft mice (incomplete tumor resection). The conditions noted are these: after intravenous administration, tumor-recurrence model.
Method: In vivo antitumor evaluation of IAS system in regrowth of residual tumor model
To establish the T24 xenograft mouse model, BALB/c nude mice (approximately 6-8
weeks, weighing 16-18 g) were subcutaneously injected with T24 cells (5 × 106) suspended
in 100 μL Matrigel. The mice were randomly divided into five groups, with six mice in each
group. Both body weight and tumor volume were measured for analysis. At 21 d after
inoculation, tumor tissues of approximately 300-500 mm3 were resected, leaving a residual
tumor of approximately 30-50 mm3. After that, the T24 xenograft mice were intravenously
administered with PBS, NLS-FF, FF-T, NLS-T and NLS-FF-T (500 μM in 200 μL PBS)
every two days on day 21, 23, 25, 27, 29 and 31. The tumor volume was calculated using the formula: tumor width2 × tumor length × 0.5.
For two-group comparisons, statistical analysis was performed using one-way ANOVA
followed by post hoc Tukey's test. The GraphPad Prism software 8.0 was used for all
The next data set relates to SV-HUC-1 cells. Nature of the data set: Toxicity assay towards SV-HUC-1 normal bladder cells. Type of data set: cell-based. To be noted: viability, different concentrations, 48 h.
Data set [3] has as its system T24 xenograft mice. Nature of the data set: In vivo antitumor evaluation, T24 subcutaneous xenograft model. To be noted: i.v. 500 μM in 200 μL PBS six times. Here is the method: 3 mm at 8 h post-treatment. The fragments were then fixed with 2.5% glutaraldehyde at 4°C overnight and treated with 1% […] for 2 h after being rinsed thrice with PBS.
Subsequently, graded concentrations of alcohol solutions (50, 70, 80, 90, 100, 100 and 100%) were utilized for graded dehydration (with 10 minutes each). Next, tumor fragments were exposed to a mixture of alcohol/acetone (1:1) for 10 min, a mixture of acetone/EPON-812 (1:1) for 1 h and a mixture of acetone/EPON-812 (1:2) for 1 h. Pure EPON-812 was then utilized to further infiltrate the tumor fragments overnight at 4°C, after which it was cured at 37, 45 and 60°C for 24 h respectively. Finally, the morphology of NLS-FF-T in the tumor slice was observed by bio-Transmission Electron Microscope (bio-TEM) after being stained with 2% uranyl acetate and 3% lead citrate.
To further verify the therapeutic potency of the IAS system, a T24 xenograft mouse […]
When the average tumor volume reached 100-200 mm3, the T24 tumor-bearing mice were […]
The individual tumor growth and body weight were measured every 2 d for analysis, with tumor volume calculated as follows: tumor width2 × tumor length × 0.5. […]
At the end of the treatment period, T24 tumor tissues were collected and washed thrice with PBS. […] The ATP levels were then measured according to the manufacturer’s instructions using an ATP Content Assay Kit. […]

The nature of data set [4]: ATP sequestration: ATP hydrolysis by alkaline phosphatase (ALP). Type of data set: biochemical. To be noted: ATP 200 μM, ALP 0.5 U/mL, DEA buffer 10 mM pH 9.8, 37 °C, bioluminescence, blank control 13%.
A further data set deals with healthy BALB/c nude mice. Nature of the data set: In vivo toxicology evaluation in healthy mice. The conditions noted are these: N = 4.
[5] abbreviates: i.v. 1000, 500 or 250 μM in 200 μL PBS six times.

For `CC(C)C[C@H](NC(=O)[C@H](CCCCN)NC(=O)c1cc2ccc(O)cc2oc1=O)C(=O)N[C@H](C(=O)N[C@@H](Cc1ccccc1)C(=O)N[C@@H](Cc1ccccc1)C(=O)NCCOCCOCCOCCOCCOCCOCCOCCOCCC(=O)N[C@H](C(=O)N[C@@H](CCCCN)C(=O)N[C@@H](CCCNC(=N)N)C(=O)N[C@@H](CCCCN)C(=O)N[C@@H](CCCCN)C(=O)N[C@@H](CCCCN)C(=O)N1CCC[C@H]1C(=O)O)C(C)C)C(C)C` [NLS-FF, HCA-KLVFF-PEG-VKRKKKP] ({Coumarin3carbonyl(7-OH)}-KLVFF[PEG8]VKRKKKP-OH), the IC50 (in general, the concentration that gives 50% inhibition) with T24 cells stood at 532 µM; in the data set on EJ cells, 278 µM; with RT-112 cells, 376 µM.

On to `Cc1cn(CC(=O)NCCCC[C@H](NC(=O)c2cc3ccc(O)cc3oc2=O)C(=O)N[C@@H](CC(C)C)C(=O)N[C@H](C(=O)N[C@@H](Cc2ccccc2)C(=O)N[C@@H](Cc2ccccc2)C(=O)NCCOCCOCCOCCOCCOCCOCCOCCOCCC(=O)NCCOCCOCCOCCOCCOCCOCCOCCOCCC(=O)O)C(C)C)c(=O)[nH]c1=O` [FF-T, HCA-K(T)LVFF-PEG2] ({Coumarin3carbonyl(7-OH)}-K(Acetyl(thymin-1-yl))LVFF[PEG8][PEG8]-OH), for which the IC50 was 408 µM with T24 cells, 181 µM in the data set with EJ cells and 356 µM with RT-112 cells.

As to `Cc1cn(CC(=O)NCCCC[C@H](NC(=O)c2cc3ccc(O)cc3oc2=O)C(=O)N[C@@H](CC(C)C)C(=O)N[C@H](C(=O)NCCOCCOCCOCCOCCOCCOCCOCCOCCC(=O)N[C@H](C(=O)N[C@@H](CCCCN)C(=O)N[C@@H](CCCNC(=N)N)C(=O)N[C@@H](CCCCN)C(=O)N[C@@H](CCCCN)C(=O)N[C@@H](CCCCN)C(=O)N2CCC[C@H]2C(=O)O)C(C)C)C(C)C)c(=O)[nH]c1=O` [NLS-T, HCA-K(T)LV-PEG-VKRKKKP] ({Coumarin3carbonyl(7-OH)}-K(Acetyl(thymin-1-yl))LV[PEG8]VKRKKKP-OH), the values for the IC50 with T24 cells, with EJ cells and in the data set on RT-112 cells were 119 µM, 122 µM and 107 µM, respectively.

Turning to `Cc1cn(CC(=O)NCCCC[C@H](NC(=O)c2cc3ccc(O)cc3oc2=O)C(=O)N[C@@H](CC(C)C)C(=O)N[C@H](C(=O)N[C@@H](Cc2ccccc2)C(=O)N[C@@H](Cc2ccccc2)C(=O)NCCOCCOCCOCCOCCOCCOCCOCCOCCC(=O)N[C@H](C(=O)N[C@@H](CCCCN)C(=O)N[C@@H](CCCNC(=N)N)C(=O)N[C@@H](CCCCN)C(=O)N[C@@H](CCCCN)C(=O)N[C@@H](CCCCN)C(=O)N2CCC[C@H]2C(=O)O)C(C)C)C(C)C)c(=O)[nH]c1=O` [NLS-FF-T, HCA-K(T)LVFF-PEG-VKRKKKP] ({Coumarin3carbonyl(7-OH)}-K(Acetyl(thymin-1-yl))LVFF[PEG8]VKRKKKP-OH), the “tumor accumulation and retention (in vivo fluorescence imaging)” value with T24 xenograft mice [1] was “dose-dependent tumor accumulation and long-time tumor retention”. Further, the IC50 came to 34 µM in the data set with T24 cells, 32 µM in the data set on EJ cells and 43.3 µM with RT-112 cells. Moreover, the “cytotoxicity against T24 cells compared with T-ATP” value in the data set on T24 cells (viability, different concentrations) is on record as “significantly higher cytotoxicity against T24 cells than that of T-ATP”. Further, in data set [2], the body weights entry is on record as “no impact”. Besides, in the data set on SV-HUC-1 cells, the “toxicity towards T24 tumor cells versus SV-HUC-1 normal bladder cells” value is reported as “enhanced toxicity towards tumor cells (T24) than that of normal cells (SV-HUC-1)”. In addition, in the data set with T24 xenograft mice [3], the body weight entry is listed as “no substantial loss of body weight”. For the same compound, the results for the “ATP remaining after ALP catalytic hydrolysis” value in data set [4] (NLS-FF-T nanofibers) and in data set [4] (NLS-FF-T nanoparticle group) were 61% and 27%, respectively. Moreover, the “histology (H&E) of liver and kidney” value with healthy BALB/c nude mice (i.v. 1000, 500 or 250 μM in 200 μL PBS six times at 2-day intervals) is “no signs of histological deterioration or damage”. In the data set on healthy BALB/c nude mice (setting [5]), the “blood biochemistry (ALT, AST, ALP, BUN, CRE)” value is on record as “typical ranges”. Further, the “routine blood examination (RBC, WBC, PLT, HGB, NEUT) versus PBS” value in the data set on healthy BALB/c nude mice (setting [5]) is given as “no differences”.
